Reference: patent publication US7345096B2, “Use of norepinephrine reuptake modulators for preventing and treating vasomotor symptoms” (Wyeth, priority 2002, dated 2008)

Experiments:
[1] = tested on: naloxone-induced flush (tail skin temperature); assay: Morphine-dependent rat model of hot flush (MD model); conditions: for ED50: Rattus norvegicus, read-out: ED50 value, abatement of naloxone-induced flush; for effect on naloxone-induced flush at maximal flush: 1 hour prior to naloxone, 15 minutes post-naloxone
Experimental: (§1) Dosinq: All doses were prepared based on mg/kg.
(§2) Animals: Ovariectomized Sprague-Dawley rats (180-220 g) were obtained from a commercial vendor (Taconic, Germantown, N.Y.) and individually housed under 12 hours light/dark cycle in a room maintained at 25° C. Animals were provided with standard rat chow and water ad libitum.
Morphine-dependent model: Ovariectomized rats were injected once daily for 8-9 days with vehicle to minimize stress responses and then administered compound(s) on test day. On day 4 of dosing, morphine dependence was induced by sc implantation of two slow-release morphine pellets (75 mg/pellet) in the dorsal scapular region. […] Four to six days after implantation, morphine withdrawal was induced with an opioid antagonist (naloxone) that causes a transient increase in TST. […] Rats were mildly sedated with ketamine and a thermistor connected to a MacLab data acquisition system was taped to the base of the tail. Tail skin temperature was then monitored continuously for 35 minutes to establish a baseline temperature. Naloxone was subsequently administered and TST was measured for an additional 35 to 60 minutes (total recording time 70 to 95 minutes).
Statistical analysis: To analyze changes in TST induced by naloxone in morphine-dependent rats, all data were analyzed using a two factor repeated measure ANOVA for “treatment” and “time.” The model was fit to test whether there were significant differences in the responses between treatment groups. Naloxone administration is designated as time zero and data is then analyzed at 5 minute intervals. The first three readings were averaged and used as baseline TST scores. All data were analyzed as ΔTST (TST for each time point—baseline). Multiple comparisons (LSD p-values) among the treatment groups at each time point were used for the analysis. Efficacy of hot flush abatement was determined by evaluating statistical differences at the peak response time of 15 minutes post-naloxone, when the maximal change in TST is observed. A customized SAS-excel (SAS Institute, Cary, N.C.) application was used applying a four parameter logistic model to determine ED50 values. A logistic dose transformation was performed on ΔTST. Maximum flush (ΔTST at 15 minutes post-naloxone) was used in the analysis and the minimum was locked at zero.

[2] = tested on: tail skin temperature during active (dark) phase; assay: OVX-induced thermoregulatory dysfunction telemetry model
Experimental: as §1, §2
A temperature and physical activity transmitter (PhysioTel TA10TA-F40, Data Sciences International) was implanted subcutaneously in the dorsal scapular region and the tip of the temperature probe was tunneled subcutaneously 2.5 cm beyond the base of the tail. After a 7-day recovery period, TST readings were continuously recorded for the remainder of the study. Tail skin temperature readings were collected from each animal every 5 minutes with values obtained over a 10 second sampling period. The day before test day, an average baseline TST value was calculated for each animal by averaging temperature readings recorded during the 12 hours active (dark) phase. In these studies, animals were dosed approximately 1 hour prior to the onset of dark cycle.
Evaluation of a compound's ability to restore normal lowering of TST in the telemetry model was analyzed using hourly TST values calculated for each animal by averaging the 12 temperature readings obtained every 5 minutes over that recording time. To analyze ΔTST in the telemetry model, a two factors repeated measure ANOVA was performed. The model used for analysis was ΔTST=GRP (group)+HR (hours)+GRP*HR+BASELINE. Thus, the reported least squares means are the expected mean values as if both groups had the same baseline value. Post-hoc tests of hourly GRP*HR samples are t-tests of the difference between groups for each hour. To be conservative, a result was not considered significant unless the p-value was <0.025. All analyses were performed using SAS PROC MIXED (SAS, Carey, N.C.).

SMILES: CN1CCN(CC(c2cccc(Cl)c2)C2(O)CCCCC2)CC1 (racemic) [1-[1-(3-chlorophenyl)-2-(4-methyl-1-piperazinyl)ethyl]cyclohexanol]
- changes in TST over time after naloxone ([1]; dose response, sc): dose-dependently abate the naloxone-induced flush

SMILES: CN(C)CC(c1ccc(O)cc1)C1(O)CCCCC1 (centres unmarked) [DVS-233, O-desmethyl-venlafaxine]
- changes in TST over time ([2]; 60 mg/kg sc): significantly and transiently decreases TST during the active phase
- ED50 ([1]; sc): 30 mg/kg

SMILES: CN(C)CC(c1cccc(Cl)c1)C1(O)CCCCC1 (centres unmarked) [WY-781]
- effect on naloxone-induced flush at maximal flush ([1]; 30 mg/kg intraperitoneally): abated the naloxone-induced flush

SMILES: CN(C)CC(c1cccc(C(F)(F)F)c1)C1(O)CCCCC1 (centres unmarked) [WY-867]
- effect on naloxone-induced flush at maximal flush ([1]; 30 mg/kg intraperitoneally): abated the naloxone-induced flush

SMILES: CCC1(c2cnc[nH]2)Cc2ccccc2C1 [atipamezole]
- changes in TST after naloxone vs vehicle ([1]; atipamezole 0.3 mg/kg sc alone, 55 minutes prior to naloxone): not significantly different from vehicle treated rats

SMILES: CNCCCN1c2ccccc2CCc2ccccc21 [desipramine]
- changes in TST over time ([2]; 10 mg/kg sc): significantly decreases TST over the entire length of the active phase
- abatement of naloxone-induced flush ([1]; 1 mg/kg sc, 40 minutes prior to naloxone, alone): approximately 50%
- abatement of hot flush ([1]; 3 mg/kg desipramine co-administered with 10 mg/kg dose of SRI): 100%
- ED50 ([1]; sc): 1 mg/kg
- effect on naloxone-induced flush at maximal flush ([1]; dose response, sc): dose-dependently abates the naloxone-induced flush
- reduction of TST compared to vehicle treated rats in naloxone-induced hot flush ([1]; low dose): 50%

SMILES: CNCCC(Oc1ccc(C(F)(F)F)cc1)c1ccccc1 (centres unmarked) [fluoxetine]
- effect on naloxone-induced flush ([1]; fluoxetine 10 mg/kg sc alone): did not abate the naloxone-induced flush

SMILES: CCOc1ccccc1OC(c1ccccc1)C1CNCCO1 (centres unmarked) [reboxetine]
- changes in TST over time after naloxone ([1]; dose response, sc): dose-dependently abate the naloxone-induced flush
- effect on naloxone-induced flush at maximal flush ([1]; dose response, sc): dose-dependently abates the naloxone-induced flush

SMILES: COc1ccc(C(CN(C)C)C2(O)CCCCC2)cc1 (centres unmarked) [venlafaxine]
- changes in TST over time ([2]; 15 mg/kg sc): significantly and transiently decreased TST during the active phase
- effect on elevated naloxone-dependent hot flush induced by atipamezole ([1]; rat, in vivo): able to alleviate
